Columns and labels:
Type in all cases: in vivo
[1] = system: lambsquarter (Chenopodium album); experiment: General postemergence herbicidal activity, CHEAL; settings: Chenopodium album, post-emergence, 336 h, postemergence spray, visual score after 14 days, 0 = no injury, 100 = complete kill, read-out: Post-emergent Weed Control CHEAL; for pest or weed control at 280 g/ha: 280 g ai/ha; for pest or weed control at 140 g/ha: 140 g ai/ha
Description: (§1) Seeds or nutlets of the desired test plant species were planted in Sun Gro MetroMix® 306 planting mixture, which typically has a pH of 6.0 to 6.8 and an organic matter content of about 30 percent, in plastic pots with a surface area of 103 square centimeters. When required to ensure good germination and healthy plants, a fungicide treatment and/or other chemical or physical treatment was applied. The plants were grown for 7-21 days in a greenhouse with an approximate 15 hour photoperiod which was maintained at about 23-29° C. during the day and 22-28° C. during the night. Nutrients and water were added on a regular basis and supplemental lighting was provided with overhead metal halide 1000-Watt lamps as necessary. The plants were employed for testing when they reached the first or second true leaf stage.
(§2) A weighed amount, determined by the highest rate to be tested, of each test compound was placed in a 25 mL glass vial and was dissolved in 4 mL of a 97:3 v/v (volume/volume) mixture of acetone and dimethyl sulfoxide (DMSO) to obtain concentrated stock solutions. […] The concentrated stock solutions obtained were diluted with 20 mL of an aqueous mixture containing acetone, water, isopropyl alcohol, DMSO, Atplus 411F crop oil concentrate, and Triton® X-155 surfactant in a 48.5:39:10:1.5:1.0:0.02 v/v ratio to obtain spray solutions containing the highest application rates. Additional application rates were obtained by serial dilution of 12 mL of the high rate solution into a solution containing 2 mL of 97:3 v/v (volume/volume) mixture of acetone and dimethyl sulfoxide (DMSO) and 10 mL of an aqueous mixture containing acetone, water, isopropyl alcohol, DMSO, Atplus 411F crop oil concentrate, and Triton X-155 surfactant in a 48.5:39:10:1.5:1.0:0.02 v/v ratio to obtain 1/2X, 1/4X, 1/8X and 1/16X rates of the high rate. Compound requirements are based upon a 12 mL application volume at a rate of 187 L/ha. Formulated compounds were applied to the plant material with an overhead Mandel track sprayer equipped with a 8002E nozzles calibrated to deliver 187 L/ha over an application area of 0.503 square meters at a spray height of 18 inches (43 cm) above the average plant canopy height. Control plants were sprayed in the same manner with the solvent blank.
(§3) The treated plants and control plants were placed in a greenhouse as described above and watered by sub-irrigation to prevent wash-off of the test compounds. After 14 days, the condition of the test plants as compared with that of the untreated plants was determined visually and scored on a scale of 0 to 100 percent where 0 corresponds to no injury and 100 corresponds to complete kill.

[2] = system: barnyardgrass (Echinochloa crus-galli); experiment: General postemergence herbicidal activity, ECHCG; settings: Echinochloa crus-galli, post-emergence, 336 h, postemergence spray, visual score after 14 days, 0 = no injury, 100 = complete kill, read-out: Post-emergent Weed Control ECHCG; for pest or weed control at 280 g/ha: 280 g ai/ha; for pest or weed control at 140 g/ha: 140 g ai/ha
Description: as §1, §2, §3

[3] = system: velvetleaf (Abutilon theophrasti); experiment: General postemergence herbicidal activity, ABUTH; settings: Abutilon theophrasti, post-emergence, 336 h, postemergence spray, visual score after 14 days, 0 = no injury, 100 = complete kill, read-out: Post-emergent Weed Control ABUTH; for pest or weed control at 280 g/ha: 280 g ai/ha; for pest or weed control at 140 g/ha: 140 g ai/ha
Description: as §1, §2, §3

[4] = system: rice (Oryza sativa); experiment: General postemergence herbicidal activity, ORYSA; settings: Oryza sativa, post-emergence, 336 h, postemergence spray, visual score after 14 days, 0 = no injury, 100 = complete kill, read-out: Post-emergent Weed Control ORYSA; for plant injury at 280 g/ha: 280 g ai/ha; for plant injury at 140 g/ha: 140 g ai/ha
Description: as §1, §2, §3

[5] = system: wild poinsettia (Euphorbia heterophylla); experiment: General postemergence herbicidal activity, EPHHL; settings: Euphorbia heterophylla, post-emergence, 336 h, postemergence spray, visual score after 14 days, 0 = no injury, 100 = complete kill, read-out: Post-emergent Weed Control EPHHL; for pest or weed control at 280 g/ha: 280 g ai/ha; for pest or weed control at 140 g/ha: 140 g ai/ha
Description: as §1, §2, §3

| Compound | pest or weed control at 280 g/ha [1] | pest or weed control at 280 g/ha [2] | pest or weed control at 280 g/ha [3] | plant injury at 280 g/ha [4] | pest or weed control at 280 g/ha [5] | also measured |
| --- | --- | --- | --- | --- | --- | --- |
| COC(=O)c1nc(-c2ccc(Cl)cc2)c(F)c(N)c1C [Compound 25, 4-Amino-6-(4-chlorophenyl)-5-fluoro-3-methylpyridine-2-carboxylic acid methyl ester] | 100% | 0% | 70% | 0% | 100% | – |
| C=Cc1c(C(=O)OC)nc(-c2ccc(Cl)cc2)c(F)c1N [Compound 26, 4-Amino-6-(4-chlorophenyl)-5-fluoro-3-vinylpyridine-2-carboxylic acid methyl ester] | – | – | – | – | – | pest or weed control at 140 g/ha [1]: 100%; pest or weed control at 140 g/ha [2]: 70%; pest or weed control at 140 g/ha [3]: 100%; plant injury at 140 g/ha [4]: 0%; pest or weed control at 140 g/ha [5]: 90% |
| COC(=O)c1nc(-c2ccc(Cl)c(OC)c2F)cc(N)c1C [Compound 27, 4-Amino-6-(4-chloro-2-fluoro-3-methoxyphenyl)-3-methyl-pyridine-2-carboxylic acid methyl ester] | 30% | 0% | 80% | 0% | 100% | – |
| C=Cc1c(N)cc(-c2ccc(Cl)cc2F)nc1C(=O)OC [Compound 29, 4-Amino-6-(4-chloro-2-fluorophenyl)-3-vinylpyridine-2-carboxylic acid methyl ester] | 85% | 0% | 85% | 10% | 75% | – |
| C=C(F)c1c(C(=O)OC)nc(-c2ccc(Cl)cc2)c(F)c1N [Compound 30, 4-Amino-6-(4-chlorophenyl)-5-fluoro-3-(1-fluorovinyl)pyridine-2-carboxylic acid methyl ester] | – | – | – | – | – | pest or weed control at 140 g/ha [1]: 100%; pest or weed control at 140 g/ha [2]: 0%; pest or weed control at 140 g/ha [3]: 100%; plant injury at 140 g/ha [4]: 0%; pest or weed control at 140 g/ha [5]: 90% |
| C#Cc1c(N)cc(-c2ccc(Cl)c(OC)c2F)nc1C(=O)OC [Compound 31, 4-Amino-6-(4-chloro-2-fluoro-3-methoxyphenyl)-3-ethynyl-pyridine-2-carboxylic acid methyl ester] | – | – | – | – | – | pest or weed control at 140 g/ha [1]: 95%; pest or weed control at 140 g/ha [2]: 80%; pest or weed control at 140 g/ha [3]: 95%; plant injury at 140 g/ha [4]: 0%; pest or weed control at 140 g/ha [5]: 100% |
| COC(=O)c1nc(-c2ccc(Cl)c(OC)c2F)nc(N)c1C(C)=O [Compound 32, 5-Acetyl-6-amino-2-(4-chloro-2-fluoro-3-methoxyphenyl)-pyrimidine-4-carboxylic acid methyl ester] | 70% | 0% | 70% | 0% | 100% | – |
| COC(=O)c1nc(-c2ccc(Cl)c(OC)c2F)nc(N)c1C=O [Compound 33, 6-Amino-2-(4-chloro-2-fluoro-3-methoxyphenyl)-5-formyl-pyrimidine-4-carboxylic acid methyl ester] | – | – | – | – | – | pest or weed control at 229 g/ha ([1]; 229 g ai/ha): 50%; pest or weed control at 229 g/ha ([2]; 229 g ai/ha): 0%; pest or weed control at 229 g/ha ([3]; 229 g ai/ha): 80%; plant injury at 229 g/ha ([4]; 229 g ai/ha): 0%; pest or weed control at 229 g/ha ([5]; 229 g ai/ha): 100% |
| COC(=O)c1nc(-c2ccc(Cl)c(OC)c2F)cc(N)c1C=O [Compound 34, 4-Amino-6-(4-chloro-2-fluoro-3-methoxyphenyl)-3-formylpyridine-2-carboxylic acid methyl ester] | 90% | 95% | 100% | 0% | 95% | – |
| COC(=O)c1nc(-c2ccc(Cl)c(OC)c2F)nc(N)c1C(F)F [Compound 35, 6-Amino-2-(4-chloro-2-fluoro-3-methoxy-phenyl)-5-difluoromethylpyrimidine-4-carboxylic acid methyl ester] | 85% | 0% | 75% | 0% | 90% | – |
| COC(=O)c1nc(-c2ccc(Cl)c(OC)c2F)cc(N)c1C(F)F [Compound 36, 4-Amino-6-(4-chloro-2-fluoro-3-methoxyphenyl)-3-difluoromethylpyridine-2-carboxylic acid methyl ester] | 95% | 95% | 100% | 0% | 95% | – |
| COC(=O)c1nc(-c2ccc(Cl)c(OC)c2F)nc(N)c1/C=C/Br [Compound 37, 6-Amino-5-((E)-2-bromovinyl)-2-(4-chloro-2-fluoro-3-methoxyphenyl)pyrimidine-4-carboxylic acid methyl ester] | 90% | 0% | 80% | 10% | 90% | – |
| COC(=O)c1nc(-c2ccc(Cl)c(OC)c2F)nc(N)c1/C=C/SC [Compound 38, 6-Amino-2-(4-chloro-2-fluoro-3-methoxyphenyl)-5-((E)-2-methylsulfanylvinyl)pyrimidine-4-carboxylic acid methyl ester] | 100% | 60% | 90% | 0% | 100% | – |
| COC(=O)c1nc(-c2ccc(Cl)c(OC)c2F)nc(N)c1C(C)F (stereo not drawn) [Compound 39, 6-Amino-2-(4-chloro-2-fluoro-3-methoxyphenyl)-5-(1-fluoroethyl)pyrimidine-4-carboxylic acid methyl ester] | – | – | – | – | – | pest or weed control at 140 g/ha [1]: 60%; pest or weed control at 140 g/ha [2]: 30%; pest or weed control at 140 g/ha [3]: 80%; plant injury at 140 g/ha [4]: 0%; pest or weed control at 140 g/ha [5]: 85% |
| C=Cc1c(N)nc(-c2ccc(Cl)c(OC(F)F)c2F)nc1C(=O)O [Compound 50, 6-Amino-2-(4-chloro-3-difluoromethoxy-2-fluorophenyl)-5-vinylpyrimidine-4-carboxylic acid] | 100% | 100% | 95% | 45% | 100% | – |
